Earlier results on three compounds are cited in patent US8759216B2, “Compositions and methods for polishing silicon nitride materials” (Cabot Microelectronics Corporation, priority 2006, dated 2014).

Read-outs that look alike come from different tables or passages of the source.

On to `OP(O)O` [phosphorous, phosphorous acid], for which the pKa by setting is: (first listed pKa value) 2.00; (second listed pKa value) 6.59.
For `O=C(O)CCCC(=O)O` [glutaric], the pKa (first listed pKa value) was 4.34 and the pKa (second listed pKa value) is listed as 5.41.
Turning to `O=C(O)c1ccccc1C(=O)O` [phthalic, phthalic acid], the pKa (first listed pKa value) is given as 2.89 and the pKa (second listed pKa value) is 5.51.

The pKa is the negative logarithm of the acid dissociation constant.
